# In patent US20220251092A1, “CASEIN KINASE 1EPSILON INHIBITOR, PHARMACEUTICAL COMPOSITION AND APPLICATION THEREOF” (HANGZHOU HEALZEN THERAPEUTICS CO., LTD., priority 2019, published 2022):
# Where two headings read alike, the source gives them in different places.
# Columns and labels:
# CK1ε [1] = molecular target: T1, CK1ε (Homo sapiens, UniProt P49674); conditions: cited from earlier work
# OCI-LY10 cells = assay: In-vitro anti-tumor activity, OCI-LY10 cells, CCK-8; type: cell-based, human; conditions: for IC50: Homo sapiens, OCI-LY10, 72h, CCK-8
# Description: The in-vitro anti-tumor activities of the synthesized compounds were determined using a diffuse large B-cell lymphoma (OCI-LY10) cell strain:
# Drug preparation method: The drug was dissolved in DMSO to make a stock solution of 10 mM and diluted in a certain ratio to obtain 7 different concentrations (test concentration: 100×).
# In vitro culture of tumor cells: The selected OCI-LY10 cells were incubated with a medium of IMDM+fetal bovine serum in a 5% CO2 cell culture incubator at 37° C., and were passaged when the cell density grew to 70-90% (adherent cells were passaged after digestion with Duck's EDTA) for later experiments as needed. Four thousand cells/200 μl/well were seeded in a 96-well plate and incubated overnight in a 5% CO2 cell incubator at 37° C. Two μl of the compounds were dispensed in each well at final concentrations of […], and incubation was performed together for 72h in a 5% CO2 cell incubator at 37° C. with DMSO (2%) as control. After 72h, 20 μl of CCK-8 solution was added and the plate was placed in a 5% CO2 cell culture incubator at 37° C. for 4h. Wells with the corresponding amounts of cell culture medium and CCK-8 solution but without cells were used as blank controls. The absorbance (OD values) was measured at 450 nm using an enzyme marker, and the obtained data were used to calculate the IC50.
# Karpas299 cells = assay: In-vitro anti-tumor activity, Karpas299 cells, CellTiter-Glo; type: cell-based; conditions: Homo sapiens, KARPAS-299, Karpas299, 72h
# Description: In-vitro anti-tumor activities of the synthesized compounds were determined using Human Non-Hodgkin's Ki-positive Large Cell Lymphoma (Karpas299) cell strain:
# Drug preparation method: The drugs were dissolved in DMSO to make stock solutions of 10 mM and diluted in a certain ratio to obtain 7 different concentrations (test concentration: 100×).
# In vitro culture of tumor cells: The selected Karpas299 cells were incubated in a 500 CO2 cell culture incubator at 37° C. using RPMI-1640^+ fetal bovine serum medium. Four thousand cells/100 μl/well were seeded in a 96-well plate and incubated overnight in a 500 CO2 cell incubator at 37° C. Five μl of the compounds were dispensed in each well at final concentrations of 10 μM, 2.5 μM, 0.625 μM, 0.15625 μM, 0.039063 μM, 0.0097656 μM and 0.0024414 μM, and incubation was performed together for 72h in a 5% CO2 cell incubator at 37° C. with DMSO (0.10%) as controls. After 72h, the CellTiter-Glo buffer and reaction substrate were taken out of the fridge and equilibrated to room temperature. The buffer was then poured into a brown bottle containing the substrate. The bottle was turned up and down so that the substrate powder was fully dissolved. […] A white sealing film was attached to the bottom of the well plate, and the chemiluminescence signal of each well was detected with an Enspire microplate reader. […]
# CK1ε [2] = molecular target: T1, CK1ε; assay: CK1ε kinase activity assay (Caliper, FAM-labelled polypeptide); type: biochemical
# Description: The in-vitro assay of inhibitory activity of the compound herein against CK1ε kinase was:
# (1) preparation of 1× kinase basic buffer and stop buffer: • 1×kinase basic buffer: 50 mM HEPES, pH 7.5; and 0.0015% Brij-35; • stop buffer: 100 mM HEPES, pH 7.5; 0.015% Brij-35; 0.2% Coating Reagent #3; and 50 mM EDTA.
# (2) preparation of the test compound: • a 50× (“n×” represents dilution factor, same hereafter) stock solution of the compound with DMSO (10 mM, DMSO) to obtain stock solution I for use; […] of stock solution I was placed in a 96-well plate, each compound sample was diluted by 5-fold serial dilution till 10 concentrations was obtained while ensuring 10 μl of drug solution in each well; meanwhile, 100 μl of DMSO was used as a blank control group and a negative control group without enzyme substrate; • a separate 96-well plate was prepared, and to 10 μl of the above compound,
# 90 μl of 1× kinase foundation buffer was added, mixed well for 10 min to obtain a mixture.
# OCI-LY10 xenograft tumor = assay: In vivo pharmacodynamic study, OCI-LY10 subcutaneous xenograft in SCID mice; design: species or system SCID mouse; conditions: combinations with 17a 6 mg/kg PO QD
# Description: OCI-LY10 cells were cultured in an IMDM medium containing 20% FBS and maintained in a 5% CO2 incubator at 37° C. with saturated humidity. OCI-LY10 cells of logarithmic phase were collected and resuspended in an IMDM basic medium containing 50% Matrigel, and the cell concentration was adjusted to 5×10^7/ml. Subcutaneous inoculation of 0.1 ml of the cell suspension was performed aseptically in the right dorsum of mice at a concentration of 5×10^6/0.1 ml/mouse. Once the tumor volume reached about 150 mm^3, the animals were randomly grouped according to tumor volume so that the difference in tumor volume between the groups was less than 10% of the mean value. The date of grouping was recorded as Day 0, and drug administration was started based on the body weight of the animals. During drug administration, body weight of certain animals decreased by more than 15% compared to Day 0 (BWL≥15%), drug administration was discontinued for these animals until their body weight recovered (BWL<15%). The body weight and tumor volume of the animals were measured twice a week during the experiment, and clinical signs were observed and recorded daily.
# The efficacy in terms of tumor volume was evaluated by the relative tumor proliferation rate T/C ratio, and T/C (%) was calculated as TRTV/CRTV[…], where TRTV is the relative tumor volume (RTV) of the treatment group and CRTV is the RTV of the negative control group. The RTV was calculated as Vt/V0, where V0 is the tumor volume at the time of grouping and Vt is the tumor volume at each measurement. The drug is considered effective with T/CP≤40% according to NMPA guidelines.
# The efficacy in terms of tumor weight was evaluated by TGI (tumor weight inhibition) values, TGI 0%=(TWC−TWT)/TWC×[…], where TWC is tumor weight of control group, and TWT is tumor weight of treatment group. The drug is considered effective with TGI≥58% according to NIH guidelines.
# [3] = Bioavailability study in rats; type: in vivo, SD rats; conditions: rat; for AUC(0-t) / Cmax / Tmax / bioavailability: Sprague-Dawley, plasma; for bioavailability: PO 10 mg/kg vs IV 1 mg/kg of II-A-7a
# Description: SD rats were used as the experimental animals, to which drugs of 10 mg/kg were administered by gavage and 1 mg/kg by tail intravenous injection. […] Whole blood (0.3 ml) was collected, 0.1 ml of plasma was separated by centrifugation at 2000 g for 10 min, and the samples were analyzed by LC-MS/MS.
# [4] = Table 5, 50 mg/kg PO QD Day 0-38
# [5] = Table 4, 100 mg/kg PO QD Day 0-38
# T1 sequence (P49674 whole entry): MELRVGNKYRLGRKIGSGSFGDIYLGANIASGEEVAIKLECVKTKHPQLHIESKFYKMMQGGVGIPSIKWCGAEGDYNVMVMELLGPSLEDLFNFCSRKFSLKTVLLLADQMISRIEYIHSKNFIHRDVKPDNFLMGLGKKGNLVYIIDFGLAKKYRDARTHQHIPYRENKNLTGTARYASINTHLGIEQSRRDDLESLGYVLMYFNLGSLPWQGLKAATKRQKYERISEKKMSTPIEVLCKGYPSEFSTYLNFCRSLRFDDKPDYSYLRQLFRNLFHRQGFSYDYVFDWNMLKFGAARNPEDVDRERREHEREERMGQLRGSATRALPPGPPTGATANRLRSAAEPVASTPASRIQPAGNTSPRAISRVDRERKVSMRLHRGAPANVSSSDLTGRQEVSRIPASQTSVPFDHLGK
IC50 (OCI-LY10 cells; read-out: IC50),IC50 (CK1ε [2]),Structure (SMILES),IC50 (Karpas299 cells),RTV Day 39 (OCI-LY10 xenograft tumor; [4]),T/C (%) Day 39 (OCI-LY10 xenograft tumor; [4]),TGI (%) (OCI-LY10 xenograft tumor; [4]),Tumor weight (OCI-LY10 xenograft tumor; [4]),AUC(0-t) ([3]; PO 10 mg/kg),Cmax ([3]; PO 10 mg/kg),Tmax ([3]; PO 10 mg/kg),bioavailability [3],other results
,,CC[C@@H](c1nc2cccc(F)c2c(=O)n1-c1ccccc1)n1nc(-c2ccc(OC(C)C)c(F)c2)c2c(N)ncnc21 [CUX-03166],,,,,,,,,,"IC50 (CK1ε [1]; literature values in WO2017079558A1, read-out: CK1ε (IC50)): 81200 nM"
,,CC(C)Oc1ccc(-c2nn([C@@H](C)c3nc4cccc(F)c4c(=O)n3-c3ccccc3)c3ncnc(N)c23)cc1F [CUX-031723],,,,,,,,,,"IC50 (CK1ε [1]; WO2017079558A1, read-out: IC50 of CK1ε): 9360 nM"
112 nM,108 nM,"COc1ccc(-c2nn([C@@H](C)c3nc4ccccc4c(=O)n3-c3ccccc3)c3ncnc(N)c23)c(F)c1F [II-A-1a, (S)-2-(1-(4-amino-3-(2,3-difluoro-4-methoxyphenyl)-1H-pyrazolo[3,4-d]pyrimidin-1-yl)ethyl)-3-phenylquinazolin-4(3H)-one]",988 nM,1.69 ± 0.27,23.12%,77.46%,0.270 ± 0.043 g,,,,,
22 nM,97 nM,"COc1ccc(-c2nn(C(C)c3nc4cccc(Cl)c4c(=O)n3-c3ccccc3)c3ncnc(N)c23)c(F)c1F (stereo not drawn) [II-A-7, 2-(1-(4-amino-3-(2,3-difluoro-4-methoxyphenyl)-1H-pyrazolo[3,4-d]pyrimidin-1-yl)ethyl)-5-chloro-3-phenylquinazolin-4(3H)-one]",,,,,,,,,,IC50 (OCI-LY10 cells; read-out: IC50 value): 22 nM; fold increase of OCI-LY10 proliferation inhibitory activity (OCI-LY10 cells; compared to compound C): 123 fold; fold increase of inhibitory activity against CK1ε (CK1ε [2]; compared to compound C): 7.2 fold; RTV Day 39 (OCI-LY10 xenograft tumor; [5]): 2.23 ± 0.15; T/C (%) Day 39 (OCI-LY10 xenograft tumor; [5]): 32.35%; TGI (%) (OCI-LY10 xenograft tumor; [5]): 66.29%; Tumor weight (OCI-LY10 xenograft tumor; [5]): 0.269 ± 0.028 g
,,"COc1ccc(-c2nn([C@@H](C)c3nc4cccc(Cl)c4c(=O)n3-c3ccccc3)c3ncnc(N)c23)c(F)c1F.O=S(=O)(O)O [II-D-6, (S)-2-(1-(4-amino-3-(2,3-difluoro-4-methoxyphenyl)-1H-pyrazolo[3,4-d]pyrimidin-1-yl)ethyl)-5-chloro-3-phenylquinazolin-4(3H)-one sulfate]",,,,,,21500 ng·h/mL,2130 ng/mL,1.67 h,29.8%,increase in bioavailability ([3]; salt vs compound in the free state (II-A-7a)): 3.7 fold

Structure (SMILES),IC50 (OCI-LY10 cells; read-out: IC50),IC50 (CK1ε [2]),IC50 (Karpas299 cells),RTV Day 39 (OCI-LY10 xenograft tumor; [4]),T/C (%) Day 39 (OCI-LY10 xenograft tumor; [4]),TGI (%) (OCI-LY10 xenograft tumor; [4]),Tumor weight (OCI-LY10 xenograft tumor; [4]),AUC(0-t) ([3]; PO 10 mg/kg),Cmax ([3]; PO 10 mg/kg),Tmax ([3]; PO 10 mg/kg),bioavailability [3],other results
"COc1ccc(-c2nn([C@@H](C)c3nc4cccc(Cl)c4c(=O)n3-c3ccccc3)c3ncnc(N)c23)c(F)c1F [II-A-7a, (S)-2-(1-(4-amino-3-(2,3-difluoro-4-methoxyphenyl)-1H-pyrazolo[3,4-d]pyrimidin-1-yl)ethyl)-5-chloro-3-phenylquinazolin-4(3H)-one]",10.2 nM,45 nM,855 nM,2.11 ± 0.60,28.86%,72.70%,0.327 ± 0.048 g,5780 ng·h/mL,456 ng/mL,6 h,8.02%,AUC(0-t) ([3]; IV 1 mg/kg): 7200 ng·h/mL; Cmax ([3]; IV 1 mg/kg): 1520 ng/mL
